Results: ChEMBL document CHEMBL1138213, “Novel multipotent tacrine-dihydropyridine hybrids with improved acetylcholinesterase inhibitory and neuroprotective activities as potential drugs for the treatment of Alzheimer's disease” (J Med Chem, 2006)

Legend:
cells = conditions: Homo sapiens, SH-SY5Y
Description: Antagonist activity at calcium channel expressed in SH-SY5Y cells assessed as blockade of potassium-induced calcium influx increase at 0.3 uM relative to control

Acetylcholinesterase [1] = target: Acetylcholinesterase (Homo sapiens, UniProt P22303)
Description: Inhibition of human erythrocyte AChE

SH-SY5Y = test: cells; conditions: Homo sapiens, read-out: Activity
Description: Viability of SH-SY5Y cells measured as neuroprotection activity in presence of H2O2 at 0.3 uM relative to control

Cholinesterase = Cholinesterase (Homo sapiens, UniProt P06276)
Sequence of Cholinesterase (P06276 whole entry): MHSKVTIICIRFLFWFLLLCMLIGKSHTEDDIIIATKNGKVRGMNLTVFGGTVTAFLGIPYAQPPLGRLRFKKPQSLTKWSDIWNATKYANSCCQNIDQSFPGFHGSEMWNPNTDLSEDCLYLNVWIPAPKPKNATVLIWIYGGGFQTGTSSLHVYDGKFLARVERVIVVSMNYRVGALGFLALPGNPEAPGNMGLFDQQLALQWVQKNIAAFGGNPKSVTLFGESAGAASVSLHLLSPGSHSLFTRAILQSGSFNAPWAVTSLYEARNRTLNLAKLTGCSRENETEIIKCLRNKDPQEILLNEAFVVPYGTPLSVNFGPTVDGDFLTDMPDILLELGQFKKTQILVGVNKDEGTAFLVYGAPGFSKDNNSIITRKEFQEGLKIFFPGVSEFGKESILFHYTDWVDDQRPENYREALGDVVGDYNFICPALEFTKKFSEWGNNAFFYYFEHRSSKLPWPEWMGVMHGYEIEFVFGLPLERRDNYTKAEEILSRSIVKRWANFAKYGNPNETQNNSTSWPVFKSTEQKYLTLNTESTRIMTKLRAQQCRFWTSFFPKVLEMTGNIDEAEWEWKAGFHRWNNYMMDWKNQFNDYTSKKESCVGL
Description: Inhibition of human serum BuChE

Acetylcholinesterase [2] = target: Acetylcholinesterase (Electrophorus electricus, UniProt O42275)
Sequence of Acetylcholinesterase (Electrophorus electricus, UniProt O42275) (O42275 whole entry): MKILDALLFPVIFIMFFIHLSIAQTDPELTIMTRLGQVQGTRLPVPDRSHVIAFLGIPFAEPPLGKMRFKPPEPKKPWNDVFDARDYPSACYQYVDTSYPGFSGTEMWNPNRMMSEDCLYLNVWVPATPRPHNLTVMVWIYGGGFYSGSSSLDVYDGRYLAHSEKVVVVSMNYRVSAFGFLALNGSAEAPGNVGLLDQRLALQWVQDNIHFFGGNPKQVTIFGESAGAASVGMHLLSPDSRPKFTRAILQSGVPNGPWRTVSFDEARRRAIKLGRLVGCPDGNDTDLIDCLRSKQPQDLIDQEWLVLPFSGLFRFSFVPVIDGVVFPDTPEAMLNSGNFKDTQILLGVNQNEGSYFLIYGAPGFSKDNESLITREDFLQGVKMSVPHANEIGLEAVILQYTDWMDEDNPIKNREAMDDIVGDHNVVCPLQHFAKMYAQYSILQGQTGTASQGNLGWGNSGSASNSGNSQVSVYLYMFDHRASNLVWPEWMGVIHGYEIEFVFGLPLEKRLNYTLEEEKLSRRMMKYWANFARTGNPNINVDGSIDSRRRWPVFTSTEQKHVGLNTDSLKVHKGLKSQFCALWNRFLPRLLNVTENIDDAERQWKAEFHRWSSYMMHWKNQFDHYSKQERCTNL
Description: Inhibition of Electrophorus electricus AChE

Sequence of Acetylcholinesterase (Homo sapiens, UniProt P22303) (P22303 whole entry): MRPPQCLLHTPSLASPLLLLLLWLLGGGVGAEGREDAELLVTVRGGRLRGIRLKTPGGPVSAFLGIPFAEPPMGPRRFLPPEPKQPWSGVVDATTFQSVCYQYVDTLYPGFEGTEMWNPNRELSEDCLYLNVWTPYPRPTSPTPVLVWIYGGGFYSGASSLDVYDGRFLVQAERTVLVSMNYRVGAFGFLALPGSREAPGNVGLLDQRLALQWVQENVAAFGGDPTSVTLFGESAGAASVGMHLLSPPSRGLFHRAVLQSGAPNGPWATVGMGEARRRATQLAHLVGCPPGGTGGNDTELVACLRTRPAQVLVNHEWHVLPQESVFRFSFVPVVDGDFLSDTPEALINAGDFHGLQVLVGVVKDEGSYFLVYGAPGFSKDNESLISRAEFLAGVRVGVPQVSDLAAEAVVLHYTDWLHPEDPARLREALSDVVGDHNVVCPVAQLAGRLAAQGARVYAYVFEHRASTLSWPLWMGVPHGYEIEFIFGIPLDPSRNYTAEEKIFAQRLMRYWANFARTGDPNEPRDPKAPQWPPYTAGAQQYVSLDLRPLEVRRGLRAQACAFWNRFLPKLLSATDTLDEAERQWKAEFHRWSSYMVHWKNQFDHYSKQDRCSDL

`CCOC(=O)C1=C(C)Nc2nc3c(c(N)c2C1c1cccc([N+](=O)[O-])c1)CCCC3` (stereo not drawn) gave an inhibition at 0.3 µM (cells) of 33.6%.
For `CCOC(=O)C1=C(C)Nc2nc3c(c(N)c2C1c1ccc(OC)cc1)CCCC3` (stereo not drawn), the inhibition at 0.3 µM (cells) was 32.8%.
Compound `CCOC(=O)C1=C(C)Nc2nc3c(c(N)c2C1c1ccc(F)cc1)CCCC3` (stereo not drawn) has an inhibition at 0.3 µM (cells) of 22.2%.
Compound `CCOC(=O)C1=C(C)Nc2nc3c(c(N)c2C1c1ccc(C)cc1)CCCC3` (stereo not drawn) has an inhibition at 0.3 µM (cells) of 29.8%, an IC50 (Acetylcholinesterase [1]) of 169 nM and a viability at 0.3 µM (SH-SY5Y) of 53.7%. For the same compound, the IC50 (Cholinesterase) was greater than 100000 nM and the IC50 (Acetylcholinesterase [2]) was 91 nM.
In the case of `CCOC(=O)C1=C(C)Nc2nc3c(c(N)c2C1c1ccccc1)CCCC3` (stereo not drawn), the inhibition at 0.3 µM (cells) is reported as 36.6%, the IC50 (Acetylcholinesterase [1]) is reported as 122 nM and the viability at 0.3 µM (SH-SY5Y) is reported as 30.6%. For the same compound, the IC50 (Cholinesterase) was greater than 100000 nM and the IC50 (Acetylcholinesterase [2]) was 80 nM.
With `CCOC(=O)C1=C(C)Nc2nc3c(c(N)c2C1c1ccc([N+](=O)[O-])cc1)CCCC3` (stereo not drawn) the inhibition at 0.3 µM (cells) was 66.7%, the IC50 (Acetylcholinesterase [1]) was 309 nM and the viability at 0.3 µM (SH-SY5Y) was 35.5%. For the same compound, the IC50 (Cholinesterase) was 34400 nM and the IC50 (Acetylcholinesterase [2]) was 600 nM.
Work on `CCOC(=O)C1=C(C)Nc2nc3c(c(N)c2C1c1ccccc1OC)CCCC3` (stereo not drawn) yielded an inhibition at 0.3 µM (cells) of 46.5%.
With `CCOC(=O)C1=C(C)Nc2nc3c(c(N)c2C1c1ccccc1[N+](=O)[O-])CCCC3` (stereo not drawn) the inhibition at 0.3 µM (cells) was 32.6%.
In the case of `CCOC(=O)C1=C(C)Nc2nc3c(c(N)c2C1c1cccc(OC)c1)CCCC3` (stereo not drawn), the inhibition at 0.3 µM (cells) is reported as 31%.
For `COCCOC(=O)C1=C(C)NC(C)=C(C(=O)OC(C)C)C1c1cccc([N+](=O)[O-])c1` (stereo not drawn) [NIMODIPINE], the inhibition at 0.3 µM (cells) was 45.5% and the viability at 0.3 µM (SH-SY5Y) was 36%.
